Activity data for one molecule are collected here from ChEMBL document CHEMBL4732105, “First orally bioavailable prodrug of proteolysis targeting chimera (PROTAC) degrades cyclin-dependent kinases 2/4/6 in vivo” (Eur J Med Chem, 2021).

In assay [1] the test system is B16-F10. Description: Induction of apoptosis in mouse B16F10 cells assessed as late apoptotic cells at 250 nM incubated for 48 hrs by Annexin V-FITC/PI staining based flow cytometry (reference value: 0.551%). The format is functional.
For assay [2], the system named is B16-F10. Briefly: Induction of cell cycle arrest in mouse B16-F10 cells assessed as accumulation at G1 phase at 25 uM incubated for 48 hrs by propidium iodide staining based flow cytometry (reference value: 52.59%). The format is functional.
For assay [3], the target named is Protein cereblon/Cyclin-dependent kinase 2 (Mus musculus) (UniProt P97377+Q8C7D2). Briefly: Protac activity at CRBN/CDK2 in mouse B16F10 cells assessed as induction of CDK2 protein degradation at 100 nM for 6 hrsin presence of Ribociclib by Western blot analysis. It counts as cell-based. To be noted: B16-F10, time 6.0 hrs.

Activity calls are given as the source filed them. No cut-off for these calls is given here.

Protein cereblon/Cyclin-dependent kinase 2 (Mus musculus), sequence (Q8C7D2 whole entry, looked up, other chains not shown): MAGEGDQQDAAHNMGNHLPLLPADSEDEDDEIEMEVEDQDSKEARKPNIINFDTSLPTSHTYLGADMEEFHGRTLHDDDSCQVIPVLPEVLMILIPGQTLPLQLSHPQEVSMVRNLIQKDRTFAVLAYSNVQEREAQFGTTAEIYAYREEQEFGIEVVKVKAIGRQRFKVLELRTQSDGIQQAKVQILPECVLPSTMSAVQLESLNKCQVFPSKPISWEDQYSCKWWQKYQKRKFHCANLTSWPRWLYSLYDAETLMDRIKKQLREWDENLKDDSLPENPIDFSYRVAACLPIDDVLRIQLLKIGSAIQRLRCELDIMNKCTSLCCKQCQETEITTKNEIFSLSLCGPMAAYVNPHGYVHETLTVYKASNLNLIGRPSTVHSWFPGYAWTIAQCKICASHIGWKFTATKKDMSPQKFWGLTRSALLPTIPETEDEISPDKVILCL

Consider `CN(C)C(=O)c1cc2cnc(Nc3ccc(C(=O)NCCCCCCNc4cccc5c4C(=O)N(C4CCC(=O)NC4=O)C5=O)cc3)nc2n1C1CCCC1` (stereo not drawn), for which the Activity with B16-F10 [1] worked out at 6.13%; in the assay with B16-F10 [2], 49.67%. Further, the outcome in assay [3] was Active.
